Here are results for 22 compounds from ChEMBL document CHEMBL3400088, “Synthesis and in vitro evaluation of novel 8-aminoquinoline-pyrazolopyrimidine hybrids as potent antimalarial agents” (Bioorg Med Chem Lett, 2015).

Broadly, the IC50 is the concentration that inhibits the measured activity by half. Read a low IC50 as higher potency.

Holding throughout (format): functional, organism-based
In test [1] the test system is Plasmodium falciparum. Kind of test: Antimalarial activity against drug-sensitive Plasmodium falciparum NF54 by SYBR green-based assay.
For test [2], the system named is Plasmodium falciparum. Kind of test: Antimalarial activity against multidrug-resistant Plasmodium falciparum K1 by SYBR green-based assay.
Test [3] concerns Plasmodium falciparum. Kind of test: Antimalarial activity against multidrug-resistant Plasmodium falciparum W2 by SYBR green-based assay.

As for `Cc1cc(Nc2cccc3cccnc23)n2ncnc2n1`, the figures for the IC50 in the test on Plasmodium falciparum [1] and in the test with Plasmodium falciparum [2] were 880 nM and 760 nM, respectively.
Regarding `c1cnc2c(Nc3ccnc4ncnn34)cccc2c1`, the IC50 in the test on Plasmodium falciparum [1] was 1400 nM; with Plasmodium falciparum [2], 840 nM.
Taken in the same sequence, the figures for `N#Cc1cnc2cc(C3CC3)nn2c1Nc1cccc2cccnc12` were 1600 nM and 2000 nM.
For `c1cc(Nc2ccnc3ccnn23)c2ccncc2c1`, in that order: 1200 nM and 1600 nM.
For `c1cnc2c(Oc3ccnc4ccnn34)cccc2c1`, in that order: more than 2000 nM and more than 2000 nM.
As for `c1cc(Nc2ccnc3ccnn23)c2c(c1)OCCO2`, the IC50 in the test with Plasmodium falciparum [1] and in the test on Plasmodium falciparum [2] was more than 2000 nM each time.
In the case of `Cc1ccc2cccc(Nc3ccnc4ccnn34)c2n1`, the results for the IC50 with Plasmodium falciparum [1] and with Plasmodium falciparum [2] were 1700 nM and 1200 nM, respectively.
Taken in the same sequence, the figures for `Cc1ccc2cccnc2c1Nc1ccnc2ccnn12` were more than 2000 nM and more than 2000 nM.
Taken in the same sequence, the figures for `Cc1cc(Nc2ccnc3ccnn23)c2ncccc2c1` were 63 nM and 38 nM.
Taken in the same sequence, the figures for `FC(F)(F)c1cc(Nc2ccnc3ccnn23)c2ncccc2c1` were 42 nM and 18 nM.
As for `COc1cc(Nc2ccnc3ccnn23)c2ncccc2c1`, the figures for the IC50 with Plasmodium falciparum [1] and in the test on Plasmodium falciparum [2] were 14 nM and 26 nM, respectively.
For `Fc1cc(Nc2ccnc3ccnn23)c2ncccc2c1`, in that order: 3.9 nM and 3.9 nM.
Taken in the same sequence, the figures for `Cc1nc2cccc(Nc3cccc4cccnc34)c2o1` were 1300 nM and 1600 nM.
Taken in the same sequence, the figures for `Cc1nccc(Nc2cccc3cccnc23)n1` were more than 500 nM and more than 500 nM.
Regarding `c1cnc2c(Nc3ccnc4ccnn34)cccc2c1`, the IC50 in the test on Plasmodium falciparum [1] worked out at 5.3 nM; in the test on Plasmodium falciparum [2], 7.8 nM.
Regarding `Cc1cc(Nc2cccc3cccnc23)n2nccc2n1`, the IC50 was less than 3.9 nM with Plasmodium falciparum [1] and 6.7 nM in the test on Plasmodium falciparum [2].
For `N#Cc1cnn2c(Nc3cccc4cccnc34)ccnc12`, in that order: 71 nM and 51 nM.
Taken in the same sequence, the figures for `Cc1nn2c(Nc3cccc4cccnc34)c(C#N)cnc2c1C` were 26 nM and 27 nM.
Take `C[C@@H]1CC[C@H]2[C@@H](C)C(=O)O[C@@H]3O[C@@]4(C)CC[C@@H]1[C@]32OO4` [ARTEMISININ]: the IC50 in the test on Plasmodium falciparum [1] was 7 nM.
Take `O=C1C(O)=C([C@H]2CC[C@H](c3ccc(Cl)cc3)CC2)C(=O)c2ccccc21` [ATOVAQUONE]: 2.3 nM corresponded to half-maximal inhibition with Plasmodium falciparum [2] (IC50).
`COc1cc(NC(C)CCCN)c2ncccc2c1` (stereo not given) [PRIMAQUINE]: it took 1470 nM to reach half-maximal inhibition in the test with Plasmodium falciparum [3] (IC50).
`COc1cc(C)c2c(Oc3cccc(C(F)(F)F)c3)c(OC)cc(NC(C)CCCN)c2n1` (stereo not given) [TAFENOQUINE] returned an IC50 in the test on Plasmodium falciparum [3] of 217 nM. This IC50 lies about 6.8-fold lower than the previous one.
